Laboratory results: ChEMBL document CHEMBL3244171, “[1-(beta-mercapto-beta,beta-cyclopentamethylenepropionic acid),4-valine,-8-D-arginine]vasopressin, a potent and selective inhibitor of the vasopressor response to arginine-vasopressin” (J Med Chem, 1978)
Where a SMILES comes first, the peptide text is derived from it.

Legend:
[1] = Antioxytocic activity in rat uterus assessed as antagonist activity on oxytocin-induced effect; format: functional, tissue-based
Rattus norvegicus = assay: Antidiuretic activity in iv dosed rat assessed as agonist activity on arginine-vasopressin-induced effect; format: functional, Urine

SMILES: CC(C)[C@@H]1NC(=O)[C@H](Cc2ccccc2)NC(=O)[C@H](Cc2ccc(O)cc2)NC(=O)CC(C)(C)SSC[C@@H](C(=O)N2CCC[C@H]2C(=O)N[C@H](CCCNC(=N)N)C(=O)NCC(N)=O)NC(=O)[C@H](CC(N)=O)NC1=O (HELM PEPTIDE1{Y.F.V.N.C.P.[dR].G.[am]}|CHEM1{[CC(C)(CC(=O)[*:1])S[*:2]]}$PEPTIDE1,CHEM1,1:R1-1:R1|PEPTIDE1,CHEM1,5:R3-1:R2$$$V2.0)
- pA2 [1]: 7.23

SMILES: CC(C)[C@@H]1NC(=O)[C@H](Cc2ccccc2)NC(=O)[C@H](Cc2ccc(O)cc2)NC(=O)CC2(CCCCC2)SSC[C@@H](C(=O)N2CCC[C@H]2C(=O)N[C@H](CCCN=C(N)N)C(=O)NCC(N)=O)NC(=O)[C@H](CC(N)=O)NC1=O (HELM PEPTIDE1{Y.F.V.N.C.P.[dR].G.[am]}|CHEM1{[O=C(CC1(S[*:2])CCCCC1)[*:1]]}$PEPTIDE1,CHEM1,1:R1-1:R1|PEPTIDE1,CHEM1,5:R3-1:R2$$$V2.0)
- Activity (Rattus norvegicus): 0.1 U/ml
- pA2 [1]: 6.62
